The subject of this test is P388 leukemia ip, CD2F1 mice, survival T/C. As to the kind of experiment: NCI In Vivo Anticancer Drug Screen. Data for tumor model P388 Leukemia (intraperitoneal) in CD2F1 (CDF1) mice. The note with it: endpoint: median survival time, higher = longer survival. In outline:
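Mice carrying the transplanted tumor received test compound or vehicle. Survival was recorded in each group, and the value is the treated-group measurement divided by that of the vehicle-treated control group.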

Setting [1] is: dose: 100.0 mg/kg/injection, schedule: Q04DX003 (ip), vehicle: saline with Tween-80.
Setting [2] is: dose: 200.0 mg/kg/injection, schedule: Q04DX003 (ip), vehicle: saline with Tween-80.
Setting [3] is: dose: 60.0 mg/kg/injection, schedule: Q01DX005 (ip), vehicle: saline with Tween-80.
Where [4] appears, read: dose: 120.0 mg/kg/injection, schedule: Q01DX005 (ip), vehicle: saline with Tween-80.
Setting [5] is: dose: 240.0 mg/kg/injection, schedule: Q01DX005 (ip), vehicle: saline with Tween-80.
Where [6] appears, read: dose: 25.0 mg/kg/injection, schedule: Q01DX009 (ip), vehicle: saline with Tween-80.
Where [7] appears, read: dose: 25.0 mg/kg/injection, schedule: Q01DX005 (ip), vehicle: Klucel (hydroxypropylcellulose) (HPC).
Where [8] appears, read: dose: 50.0 mg/kg/injection, schedule: Q01DX009 (ip), vehicle: saline with Tween-80.
[9] abbreviates: dose: 100.0 mg/kg/injection, schedule: Q01DX009 (ip), vehicle: saline with Tween-80.
Where [10] appears, read: dose: 200.0 mg/kg/injection, schedule: Q01DX009 (ip), vehicle: saline with Tween-80.

“And” between values parts separate entries of the source, which are not always exact repeats. Equal values may be shown once. Inconclusive results and toxic doses are left out.

`CC(CC=O)CCCC(C)(C)O` (stereo not given): the T/C was 100 % of control under setting [1]; 100 % of control under setting [2]; 100 % of control (dose: 400.0 mg/kg/injection, schedule: Q04DX003 (ip), vehicle: saline with Tween-80).

Take `CNc1nc(N)nc2c1nc(Cl)n2C1OC(CO)C(O)C1O` (stereo not given): the T/C (dose: 50.0 mg/kg/injection, schedule: Q01DX005 (ip), vehicle: saline with Tween-80) was 102 % of control; the T/C (dose: 100.0 mg/kg/injection, schedule: Q01DX005 (ip), vehicle: saline with Tween-80) is 101 % of control; the T/C (dose: 200.0 mg/kg/injection, schedule: Q01DX005 (ip), vehicle: saline with Tween-80) was 95 % of control.

As to `CCOc1cc2c(cc1C(C)(C)c1ccc(OC)cc1)OCO2`, the T/C by setting is: under setting [3], 98 % of control; under setting [4], 109 % of control and 113 % of control; under setting [5], 123 % of control.

Take `Cc1[nH]c2ccc(Br)cc2c1/C=N/NC(N)=S`: the T/C (dose: 100.0 mg/kg/injection, schedule: Q01DX001 (ip), vehicle: Klucel (hydroxypropylcellulose) (HPC)) is 101 % of control; the T/C (dose: 200.0 mg/kg/injection, schedule: Q01DX001 (ip), vehicle: Klucel (hydroxypropylcellulose) (HPC)) was 97 % of control; the T/C (dose: 400.0 mg/kg/injection, schedule: Q01DX001 (ip), vehicle: Klucel (hydroxypropylcellulose) (HPC)) is 90 % of control.

Consider `O=NNc1c2c(nc3ccccc13)CCCC2`, for which the T/C by setting is: (dose: 3.12 mg/kg/injection, schedule: Q01DX009 (ip), vehicle: water) 94 % of control; (dose: 6.25 mg/kg/injection, schedule: Q01DX009 (ip), vehicle: water) 94 % of control; (dose: 12.5 mg/kg/injection, schedule: Q01DX009 (ip), vehicle: water) 103 % of control; (dose: 25.0 mg/kg/injection, schedule: Q01DX009 (ip), vehicle: water) 100 % of control and 111 % of control and 112 % of control; (dose: 50.0 mg/kg/injection, schedule: Q01DX009 (ip), vehicle: water) 100 % of control and 110 % of control and 123 % of control; (dose: 100.0 mg/kg/injection, schedule: Q01DX009 (ip), vehicle: water) 100 % of control and 106 % of control. Further, the T/C (dose: 200.0 mg/kg/injection, schedule: Q01DX009 (ip), vehicle: water) is 89 % of control.

With `CN1CCOC(=O)C(C#N)=C1c1ccccc1`, the T/C by setting is: under setting [3], 110 % of control; under setting [4], 108 % of control; under setting [5], 98 % of control.

Turning to `N#CC(C#N)=NO` (tested in a mixture with another compound), the T/C was 100 % of control (dose: 6.25 mg/kg/injection, schedule: Q01DX009 (ip), vehicle: saline with Tween-80); 98 % of control (dose: 12.5 mg/kg/injection, schedule: Q01DX009 (ip), vehicle: saline with Tween-80); 100 % of control under setting [6]; 86 % of control (dose: 100.0 mg/kg/injection, schedule: Q01DX009 (ip), vehicle: saline).

As to `COc1ccccc1/C=C/C(=O)c1ccccc(=O)c1O`, the T/C by setting is: under setting [7], 101 % of control; (dose: 50.0 mg/kg/injection, schedule: Q01DX005 (ip), vehicle: Klucel (hydroxypropylcellulose) (HPC)) 104 % of control; (dose: 100.0 mg/kg/injection, schedule: Q01DX005 (ip), vehicle: Klucel (hydroxypropylcellulose) (HPC)) 100 % of control; (dose: 200.0 mg/kg/injection, schedule: Q01DX005 (ip), vehicle: Klucel (hydroxypropylcellulose) (HPC)) 109 % of control.

`Nc1cc2c3c(cccc3c1O)CC2`: the T/C reads like this: (dose: 6.25 mg/kg/injection, schedule: Q01DX005 (ip), vehicle: Klucel (hydroxypropylcellulose) (HPC)) 99 % of control; (dose: 12.5 mg/kg/injection, schedule: Q01DX005 (ip), vehicle: Klucel (hydroxypropylcellulose) (HPC)) 102 % of control; under setting [7], 102 % of control.

Turning to `COC(=O)Nn1c(C)c(C(=O)Nc2ccc(OC)cc2)c(C(=O)OC)c1C`, the T/C reads like this: under setting [3], 97 % of control; under setting [4], 100 % of control; under setting [5], 97 % of control.

Turning to `CCc1nc(N)nc(N)c1-c1ccc(Cl)cc1.[O]=[Zn]`, the T/C reads like this: (dose: 12.5 mg/kg/injection, schedule: Q04DX003 (ip), vehicle: Klucel (hydroxypropylcellulose) (HPC)) 106 % of control; (dose: 25.0 mg/kg/injection, schedule: Q04DX003 (ip), vehicle: Klucel (hydroxypropylcellulose) (HPC)) 106 % of control; (dose: 50.0 mg/kg/injection, schedule: Q04DX003 (ip), vehicle: Klucel (hydroxypropylcellulose) (HPC)) 113 % of control; (dose: 100.0 mg/kg/injection, schedule: Q04DX003 (ip), vehicle: Klucel (hydroxypropylcellulose) (HPC)) 117 % of control.

`CCCNC(=O)NS(=O)(=O)c1ccc(Cl)cc1`: the T/C runs as follows: (dose: 50.0 mg/kg/injection, schedule: Q04DX003 (ip), vehicle: saline with Tween-80) 102 % of control; under setting [1], 109 % of control; under setting [2], 100 % of control.

Take `CC(=O)Nc1cccc(/C=C/C=C/c2ccc([N+](=O)[O-])cc2)c1`: the T/C runs as follows: (dose: 37.5 mg/kg/injection, schedule: Q01DX001 (ip), vehicle: saline with Tween-80) 100 % of control; (dose: 75.0 mg/kg/injection, schedule: Q01DX001 (ip), vehicle: saline with Tween-80) 95 % of control; (dose: 150.0 mg/kg/injection, schedule: Q01DX001 (ip), vehicle: saline with Tween-80) 90 % of control.

As for `CCSC(=N)N=Nc1ccc(O)cc1`, the T/C by setting is: under setting [6], 100 % of control; under setting [8], 99 % of control; under setting [9], 99 % of control; under setting [10], 93 % of control.

`CN(C)c1ccc(C(=C2C=CC(=[N+](C)C)C=C2)c2ccccc2Cl)cc1`: the T/C by setting is: (dose: 1.56 mg/kg/injection, schedule: Q01DX005 (ip), vehicle: saline with Tween-80) 117 % of control; (dose: 3.13 mg/kg/injection, schedule: Q01DX005 (ip), vehicle: saline with Tween-80) 117 % of control and 121 % of control; (dose: 6.25 mg/kg/injection, schedule: Q01DX005 (ip), vehicle: saline with Tween-80) 118 % of control (2×) and 121 % of control; (dose: 12.5 mg/kg/injection, schedule: Q01DX005 (ip), vehicle: saline with Tween-80) 112 % of control and 88 % of control.

For the compound `COc1ccc(CCN2C(=O)C(=O)N(c3cccc4c(N5C(=O)C(=O)N(CCc6ccc(OC)c(OC)c6)C5=O)cccc34)C2=O)cc1OC`, the T/C runs as follows: (dose: 50.0 mg/kg/injection, schedule: Q01DX009 (ip), vehicle: Klucel (hydroxypropylcellulose) (HPC)) 95 % of control; (dose: 100.0 mg/kg/injection, schedule: Q01DX009 (ip), vehicle: Klucel (hydroxypropylcellulose) (HPC)) 93 % of control; (dose: 200.0 mg/kg/injection, schedule: Q01DX009 (ip), vehicle: Klucel (hydroxypropylcellulose) (HPC)) 96 % of control.

As for `CS(=O)CC(=N\N)/C(CS(C)=O)=N/N` (stereo not given), the T/C (dose: 60.0 mg/kg/injection, schedule: Q01DX005 (ip), vehicle: saline) is 100 % of control; the T/C (dose: 120.0 mg/kg/injection, schedule: Q01DX005 (ip), vehicle: saline) is 95 % of control; the T/C (dose: 240.0 mg/kg/injection, schedule: Q01DX005 (ip), vehicle: saline) is 102 % of control.

Turning to `O=C(O)COc1ccc2ccccc2c1`, the T/C runs as follows: under setting [9], 90 % of control; under setting [1], 100 % of control; under setting [10], 100 % of control; under setting [2], 110 % of control.

As for `Cc1ccc2[nH]c(=O)c(=O)[nH]c2c1`, the T/C was 119 % of control under setting [6], 103 % of control under setting [8], 105 % of control under setting [9] and 104 % of control under setting [10].

`CCCCNc1ccc(-c2c(N)nc(N)nc2CC)cc1[N+](=O)[O-]`: the T/C by setting is: under setting [3], 111 % of control and 118 % of control; under setting [4], 121 % of control; under setting [5], 206 % of control; (dose: 480.0 mg/kg/injection, schedule: Q01DX005 (ip), vehicle: saline with Tween-80) 158 % of control.

For the compound `Cc1ncc(C(O)c2ccc(Cl)cc2)n1Cc1ccccc1` (stereo not given), the T/C under setting [3] was 96 % of control, the T/C under setting [4] was 104 % of control and the T/C under setting [5] was 99 % of control.

Regarding `COC(=O)OC(C#N)c1ccccc1[N+](=O)[O-]` (stereo not given), the T/C reads like this: (dose: 1.56 mg/kg/injection, schedule: Q01DX009 (ip), vehicle: saline) 88 % of control; (dose: 3.12 mg/kg/injection, schedule: Q01DX009 (ip), vehicle: saline) 98 % of control; (dose: 6.25 mg/kg/injection, schedule: Q01DX009 (ip), vehicle: saline) 105 % of control; (dose: 6.25 mg/kg/injection, schedule: Q01DX009 (ip), vehicle: suspension in saline) 88 % of control; (dose: 200.0 mg/kg/injection, schedule: Q01DX009 (ip), vehicle: saline) 94 % of control.
